Measurements taken from patent publication US10208046B2, “Nitrogen-containing heterocyclic compound” (Takeda Pharmaceutical Company Limited, priority 2014, dated 2019).

Molecular target: T1, human M1 receptor (hCHRM1) (Homo sapiens, UniProt P11229)
T1 construct: expressed in transfected cells
T1 sequence (P11229 1-460): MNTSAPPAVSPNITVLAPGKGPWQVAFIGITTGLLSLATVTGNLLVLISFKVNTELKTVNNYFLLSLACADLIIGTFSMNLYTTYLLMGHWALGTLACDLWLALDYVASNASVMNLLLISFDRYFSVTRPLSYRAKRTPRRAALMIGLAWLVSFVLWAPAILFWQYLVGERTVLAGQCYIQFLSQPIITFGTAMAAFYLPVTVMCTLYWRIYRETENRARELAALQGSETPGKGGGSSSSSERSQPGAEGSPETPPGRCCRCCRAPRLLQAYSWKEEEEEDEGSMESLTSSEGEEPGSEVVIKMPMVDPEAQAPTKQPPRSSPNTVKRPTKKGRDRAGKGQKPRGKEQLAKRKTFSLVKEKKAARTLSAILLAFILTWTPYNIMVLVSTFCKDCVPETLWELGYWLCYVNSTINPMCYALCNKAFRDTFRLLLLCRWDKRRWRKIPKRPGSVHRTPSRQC
Assay: Measurement of M1 receptor positive allosteric modulator (M1PAM) activity, calcium fluorescence in CHO-K1 cells;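 for EC50: potency reported as IP value in nM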
Assay type: cell-based
Conditions: for activity (%) at 10 μM: 10 μM test compound with acetylcholine at EC20, 100% = acetylcholine 1 μM, 0% = DMSO; for EC50: inflection point in the concentration-dependent curve, acetylcholine at EC20 (final 0.6-0.8 nM), CHO-K1 cells expressing human M1, Fluo-4, FLIPRtetra, read-out: IP value
Protocol: Measurement of M1 Receptor Positive Allosteric Modulator (M1PAM) Activity
The activity of a test compound in the presence of acetylcholine at EC20 concentration (final concentration 0.6-0.8 nM), which affords an action corresponding to about 20% of the maximum activity, was measured as PAM activity. The method is as follows. CHO-K1 cells stably expressing a human M1 receptor (hCHRM1) were plated on a 384-well black clear bottom plate (BD Falcon) at 5,000 cells/well, and cultured in an incubator at 37° C., 5% CO2 for 1 day. The medium in the cell plate was removed, and assay buffer A containing calcium indicator (Recording medium (DOJINDO LABORATORIES), 0.1% BSA (Wako Pure Chemical Industries, Ltd.), 2.5 μg/mL Fluo-4 AM (DOJINDO LABORATORIES), 0.08% Pluronic F127 (DOJINDO LABORATORIES), 1.25 mM probenecid (DOJINDO LABORATORIES)) was added at 30 μL/well. The cells were left standing in the incubator at 37° C., 5% CO2 for 30 min, and further left standing at room temperature for 30 min. A test compound prepared by diluting with assay buffer B (HBSS (Invitrogen), 20 mM HEPES (Invitrogen), 0.1% BSA) containing 2.4-3.2 nM acetylcholine was added at 10 μL/well, and the fluorescence was measured by FLIPRtetra (Molecular Devices) for 1 min every 1 second. With the definition that the amount of change in the fluorescence on addition of acetylcholine (final concentration 1 μM) is 100% and that on addition of DMSO instead of a test compound is 0%, the activity (%) of the test compound was calculated, and the inflection point in the concentration-dependent curve of the test compound was calculated as IP values.

| SMILES | activity (%) at 10 μM [%] | EC50 [nM] |
| --- | --- | --- |
| CCC(F)(F)COc1nccc2c1C(=O)N(Cc1ccc(-c3cnn(CC(F)F)c3)cc1F)C2 [Example 59, 4-(2,2-difluorobutoxy)-2-(4-(1-(2,2-difluoroethyl)-1H-pyrazol-4-yl)-2-fluorobenzyl)-1,2-dihydro-3H-pyrrolo[3,4-c]pyridin-3-one] | 107 | 17 |
| CCn1cc(-c2ccc(CN3Cc4ccnc(OCC(F)(F)CC)c4C3=O)c(F)c2)cn1 [Example 60, 4-(2,2-difluorobutoxy)-2-(4-(1-ethyl-1H-pyrazol-4-yl)-2-fluorobenzyl)-1,2-dihydro-3H-pyrrolo[3,4-c]pyridin-3-one] | 94 | 7.4 |
| O=C1c2c(ccnc2OCC(F)F)CN1Cc1ccc(-c2cnn(CC(F)F)c2)cc1 [Example 61, 4-(2,2-difluoroethoxy)-2-(4-(1-(2,2-difluoroethyl)-1H-pyrazol-4-yl)benzyl)-1,2-dihydro-3H-pyrrolo[3,4-c]pyridin-3-one] | 91 | 51 |
| CCC(F)(F)COc1nccc2c1C(=O)N(Cc1ccc(-c3cnn(CC(F)(F)F)c3)cc1F)C2 [Example 62, 4-(2,2-difluorobutoxy)-2-(2-fluoro-4-(1-(2,2,2-trifluoroethyl)-1H-pyrazol-4-yl)benzyl)-1,2-dihydro-3H-pyrrolo[3,4-c]pyridin-3-one] | 91 | 40 |
| CCC(F)(F)COc1nccc2c1C(=O)N(Cc1ccc(-c3cnn(C(F)F)c3)cc1)C2 [Example 63, 4-(2,2-difluorobutoxy)-2-(4-(1-(difluoromethyl)-1H-pyrazol-4-yl)benzyl)-1,2-dihydro-3H-pyrrolo[3,4-c]pyridin-3-one] | 91 | 96 |
| O=C1c2c(ccnc2OCC(F)F)CN1Cc1ccc(-c2cnn(CC(F)(F)F)c2)cc1 [Example 65, 4-(2,2-difluoroethoxy)-2-(4-(1-(2,2,2-trifluoroethyl)-1H-pyrazol-4-yl)benzyl)-1,2-dihydro-3H-pyrrolo[3,4-c]pyridin-3-one] | 106 | 91 |
| CCn1cc(-c2ccc(CN3Cc4ccnc(OCC(F)F)c4C3=O)cc2)cn1 [Example 66, 4-(2,2-difluoroethoxy)-2-(4-(1-ethyl-1H-pyrazol-4-yl)benzyl)-1,2-dihydro-3H-pyrrolo[3,4-c]pyridin-3-one] | 105 | 66 |
| CCn1cc(-c2ccc(CN3Cc4ncnc(OCC(F)(F)CC)c4C3=O)cc2)cn1 [Example 68, 4-(2,2-difluorobutoxy)-6-(4-(1-ethyl-1H-pyrazol-4-yl)benzyl)-6,7-dihydro-5H-pyrrolo[3,4-d]pyrimidin-5-one] | 97 | 7.1 |
| CCC(F)(F)COc1ncnc2c1C(=O)N(Cc1ccc(-c3cnn(CC(F)(F)F)c3)cc1)C2 [Example 69, 4-(2,2-difluorobutoxy)-(4-(1-(2,2,2-trifluoroethyl)-1H-pyrazol-4-yl)benzyl)-6,7-dihydro-5H-pyrrolo[3,4-d]pyrimidin-5-one] | 88 | 9.6 |
| CCC(F)(F)COc1nccc2c1C(=O)N(Cc1ccc(-c3cn[nH]c3)cc1)C2 [Example 72, 4-(2,2-difluorobutoxy)-2-(4-(1H-pyrazol-4-yl)benzyl)-1,2-dihydro-3H-pyrrolo[3,4-c]pyridin-3-one] | 90 | 59 |
| CCC(F)(F)COc1nccc2c1C(=O)N(Cc1ccc(-c3cnn(CC(F)(F)F)c3)cc1)C2 [Example 73, 4-(2,2-difluorobutoxy)-2-(4-(1-(2,2,2-trifluoroethyl)-1H-pyrazol-4-yl)benzyl)-1,2-dihydro-3H-pyrrolo[3,4-c]pyridin-3-one] | 94 | 50 |
| CCC(F)(F)COc1ncnc2c1C(=O)N(Cc1ccc(-c3cn(C)nc3C)cc1F)C2 [Example 74, 4-(2,2-difluorobutoxy)-6-(4-(1,3-dimethyl-1H-pyrazol-4-yl)-2-fluorobenzyl)-6,7-dihydro-5H-pyrrolo[3,4-d]pyrimidin-5-one] | 101 | 8.7 |
| CCC(F)(F)COc1ncnc2c1C(=O)N(Cc1ccc(-c3cnn(C)c3)cc1)C2 [Example 75, 4-(2,2-difluorobutoxy)-6-(4-(1-methyl-1H-pyrazol-4-yl)benzyl)-6,7-dihydro-5H-pyrrolo[3,4-d]pyrimidin-5-one] | 98 | 13 |
| CCC(F)(F)COc1nccc2c1C(=O)N(Cc1ccc(-c3cnn(CC(F)F)c3)cc1)C2 [Example 76, 4-(2,2-difluorobutoxy)-2-(4-(1-(2,2-difluoroethyl)-1H-pyrazol-4-yl)benzyl)-1,2-dihydro-3H-pyrrolo[3,4-c]pyridin-3-one] | 94 | 45 |
| CCn1cc(-c2ccc(CN3Cc4ccnc(OCC(F)(F)CC)c4C3=O)cc2)cn1 [Example 77, 4-(2,2-difluorobutoxy)-2-(4-(1-ethyl-1H-pyrazol-4-yl)benzyl)-1,2-dihydro-3H-pyrrolo[3,4-c]pyridin-3-one] | 99 | 68 |
| Cn1cc(-c2ccc(CN3Cc4ncnc(OCC(C)(F)F)c4C3=O)cc2)cn1 [Example 78, 4-(2,2-difluoropropoxy)-6-(4-(1-methyl-1H-pyrazol-4-yl)benzyl)-6,7-dihydro-5H-pyrrolo[3,4-d]pyrimidin-5-one] | 95 | 19 |
| Cn1cc(-c2ccc(CN3Cc4ccnc(OCC(C)(C)F)c4C3=O)c(F)c2)cn1 [Example 81, 4-(2-fluoro-2-methylpropoxy)-2-(2-fluoro-4-(1-methyl-1H-pyrazol-4-yl)benzyl)-1,2-dihydro-3H-pyrrolo[3,4-c]pyridin-3-one] | 88 | 32 |
| Cc1nn(C)cc1-c1ccc(CN2Cc3ccnc(OCC(C)(C)F)c3C2=O)c(F)c1 [Example 82, 2-(4-(1,3-dimethyl-1H-pyrazol-4-yl)-2-fluorobenzyl)-4-(2-fluoro-2-methylpropoxy)-1,2-dihydro-3H-pyrrolo[3,4-c]pyridin-3-one] | 95 | 17 |
| CCn1cc(-c2ccc(CN3Cc4ccnc(OCC(C)(F)F)c4C3=O)cc2)cn1 [Example 84, 4-(2,2-difluoropropoxy)-2-(4-(1-ethyl-1H-pyrazol-4-yl)benzyl)-1,2-dihydro-3H-pyrrolo[3,4-c]pyridin-3-one] | 96 | 72 |
| Cn1cc(-c2ccc(CN3Cc4ccnc(OCC(C)(F)F)c4C3=O)c(F)c2)cn1 [Example 86, 4-(2,2-difluoropropoxy)-2-(2-fluoro-4-(1-methyl-1H-pyrazol-4-yl)benzyl)-1,2-dihydro-3H-pyrrolo[3,4-c]pyridin-3-one] | 91 | 21 |
| Cn1cc(-c2ccc(CN3Cc4ccnc(OCC(F)(F)F)c4C3=O)c(F)c2)cn1 [Example 87, 2-(2-fluoro-4-(1-methyl-1H-pyrazol-4-yl)benzyl)-4-(2,2,2-trifluoroethoxy)-1,2-dihydro-3H-pyrrolo[3,4-c]pyridin-3-one] | 101 | 32 |
| Cc1nn(C)cc1-c1ccc(CN2Cc3ccnc(OCC(F)(F)F)c3C2=O)c(F)c1 [Example 88, 2-(4-(1,3-dimethyl-1H-pyrazol-4-yl)-2-fluorobenzyl)-4-(2,2,2-trifluoroethoxy)-1,2-dihydro-3H-pyrrolo[3,4-c]pyridin-3-one] | 101 | 74 |
| CCC(F)(F)COc1nccc2c1C(=O)N(Cc1ccc(-c3cnn(C)c3)cc1F)C2 [Example 92, 4-(2,2-difluorobutoxy)-2-(2-fluoro-4-(1-methyl-1H-pyrazol-4-yl)benzyl)-1,2-dihydro-3H-pyrrolo[3,4-c]pyridin-3-one] | 94 | 15 |
| CCC(F)(F)COc1nccc2c1C(=O)N(Cc1ccc(-c3ccn(C)n3)cc1F)C2 [Example 97, 4-(2,2-difluorobutoxy)-2-(2-fluoro-4-(1-methyl-1H-pyrazol-3-yl)benzyl)-1,2-dihydro-3H-pyrrolo[3,4-c]pyridin-3-one] | 104 | 77 |
